{"source": "PubChem BioAssay (NCI)", "note": "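Compound exposure: 48 hours, 5 concentrations, 96-well plates. TGI: total growth inhibition.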"}
{"system": "HL-60(TB) leukemia", "experiment": "NCI anticancer screen, dose series, 48 h", "units": {"TGI": "µM"}}
{"smiles": "N#Cc1ccccc1NC(=O)/C(=N\\Nc1ccc([N+](=O)[O-])cc1)C1C(=O)NC(=O)NC1=O", "TGI": "> 100"}
{"smiles": "CCCN=Cc1c(O)c(O)c(C(C)C)c2cc(C)c(-c3c(C)cc4c(C(C)C)c(O)c(O)c(C=NCCC)c4c3O)c(O)c12", "TGI": "> 23.6"}
{"system": "HOP-62 NSCLC", "experiment": "NCI anticancer screen, dose series, 48 h", "units": {"TGI": "µM"}}
{"smiles": "COC1=C(OC)C(O)(c2ccccc2)C1=O", "note": "(stereo unspecified)", "TGI": "> 100"}
{"smiles": "O=C(c1nc2ccc(Cl)cc2[nH]c1=O)C(O)c1ccccc1", "note": "(stereo unspecified)", "TGI": "> 100"}
{"smiles": "N#Cc1ccccc1NC(=O)/C(=N\\Nc1ccc([N+](=O)[O-])cc1)C1C(=O)NC(=O)NC1=O", "TGI": "> 100"}
{"smiles": "CCCN=Cc1c(O)c(O)c(C(C)C)c2cc(C)c(-c3c(C)cc4c(C(C)C)c(O)c(O)c(C=NCCC)c4c3O)c(O)c12", "TGI": "> 77.4"}
{"system": "HOP-92 NSCLC", "experiment": "NCI anticancer screen, dose series, 48 h", "units": {"TGI": "µM"}}
{"smiles": "COC1=C(OC)C(O)(c2ccccc2)C1=O", "note": "(stereo unspecified)", "TGI": "> 100"}
{"smiles": "O=C(c1nc2ccc(Cl)cc2[nH]c1=O)C(O)c1ccccc1", "note": "(stereo unspecified)", "TGI": "> 100"}
{"smiles": "c1ccc(C2(c3ccccc3)SSC3(S2)C2CC4CC(C2)CC3C4)cc1", "note": "(stereo unspecified)", "TGI": "> 100"}
{"smiles": "N#Cc1ccccc1NC(=O)/C(=N\\Nc1ccc([N+](=O)[O-])cc1)C1C(=O)NC(=O)NC1=O", "TGI": 74.8}
{"smiles": "CCCN=Cc1c(O)c(O)c(C(C)C)c2cc(C)c(-c3c(C)cc4c(C(C)C)c(O)c(O)c(C=NCCC)c4c3O)c(O)c12", "TGI": 8.51}
{"system": "HS 578T breast", "experiment": "NCI anticancer screen, dose series, 48 h", "units": {"TGI": "µM"}}
{"smiles": "CCCN=Cc1c(O)c(O)c(C(C)C)c2cc(C)c(-c3c(C)cc4c(C(C)C)c(O)c(O)c(C=NCCC)c4c3O)c(O)c12", "TGI": "> 100"}
{"system": "HT29 colon", "experiment": "NCI anticancer screen, dose series, 48 h", "units": {"TGI": "µM"}}
{"smiles": "COC1=C(OC)C(O)(c2ccccc2)C1=O", "note": "(stereo unspecified)", "TGI": "> 100"}
{"smiles": "O=C(c1nc2ccc(Cl)cc2[nH]c1=O)C(O)c1ccccc1", "note": "(stereo unspecified)", "TGI": "> 100"}
{"smiles": "c1ccc(C2(c3ccccc3)SSC3(S2)C2CC4CC(C2)CC3C4)cc1", "note": "(stereo unspecified)", "TGI": "> 100"}
{"smiles": "CCCN=Cc1c(O)c(O)c(C(C)C)c2cc(C)c(-c3c(C)cc4c(C(C)C)c(O)c(O)c(C=NCCC)c4c3O)c(O)c12", "TGI": "> 24.9"}
{"system": "IGROV1 ovarian", "experiment": "NCI anticancer screen, dose series, 48 h", "units": {"TGI": "µM"}}
{"smiles": "COC1=C(OC)C(O)(c2ccccc2)C1=O", "note": "(stereo unspecified)", "TGI": "> 100"}
{"smiles": "O=C(c1nc2ccc(Cl)cc2[nH]c1=O)C(O)c1ccccc1", "note": "(stereo unspecified)", "TGI": "> 100"}
{"smiles": "c1ccc(C2(c3ccccc3)SSC3(S2)C2CC4CC(C2)CC3C4)cc1", "note": "(stereo unspecified)", "TGI": "> 100"}
{"smiles": "N#Cc1ccccc1NC(=O)/C(=N\\Nc1ccc([N+](=O)[O-])cc1)C1C(=O)NC(=O)NC1=O", "TGI": "> 100"}
{"smiles": "CCCN=Cc1c(O)c(O)c(C(C)C)c2cc(C)c(-c3c(C)cc4c(C(C)C)c(O)c(O)c(C=NCCC)c4c3O)c(O)c12", "TGI": "> 100"}
{"system": "K-562 leukemia", "experiment": "NCI anticancer screen, dose series, 48 h", "units": {"TGI": "µM"}}
{"smiles": "O=C(c1nc2ccc(Cl)cc2[nH]c1=O)C(O)c1ccccc1", "note": "(stereo unspecified)", "TGI": "> 100"}
{"smiles": "c1ccc(C2(c3ccccc3)SSC3(S2)C2CC4CC(C2)CC3C4)cc1", "note": "(stereo unspecified)", "TGI": "> 100"}
{"smiles": "N#Cc1ccccc1NC(=O)/C(=N\\Nc1ccc([N+](=O)[O-])cc1)C1C(=O)NC(=O)NC1=O", "TGI": "> 100"}
{"smiles": "CCCN=Cc1c(O)c(O)c(C(C)C)c2cc(C)c(-c3c(C)cc4c(C(C)C)c(O)c(O)c(C=NCCC)c4c3O)c(O)c12", "TGI": "> 82.7"}
{"system": "KM12 colon", "experiment": "NCI anticancer screen, dose series, 48 h", "units": {"TGI": "µM"}}
{"smiles": "COC1=C(OC)C(O)(c2ccccc2)C1=O", "note": "(stereo unspecified)", "TGI": "> 100"}
{"smiles": "O=C(c1nc2ccc(Cl)cc2[nH]c1=O)C(O)c1ccccc1", "note": "(stereo unspecified)", "TGI": "> 100"}
{"smiles": "c1ccc(C2(c3ccccc3)SSC3(S2)C2CC4CC(C2)CC3C4)cc1", "note": "(stereo unspecified)", "TGI": "> 100"}
{"smiles": "N#Cc1ccccc1NC(=O)/C(=N\\Nc1ccc([N+](=O)[O-])cc1)C1C(=O)NC(=O)NC1=O", "TGI": "> 100"}
{"smiles": "CCCN=Cc1c(O)c(O)c(C(C)C)c2cc(C)c(-c3c(C)cc4c(C(C)C)c(O)c(O)c(C=NCCC)c4c3O)c(O)c12", "TGI": "> 32.6"}
{"system": "KM20L2 colon", "experiment": "NCI anticancer screen, dose series, 48 h", "units": {"TGI": "µM"}}
{"smiles": "O=C(c1nc2ccc(Cl)cc2[nH]c1=O)C(O)c1ccccc1", "note": "(stereo unspecified)", "TGI": "> 100"}
{"smiles": "c1ccc(C2(c3ccccc3)SSC3(S2)C2CC4CC(C2)CC3C4)cc1", "note": "(stereo unspecified)", "TGI": "> 100"}
{"smiles": "N#Cc1ccccc1NC(=O)/C(=N\\Nc1ccc([N+](=O)[O-])cc1)C1C(=O)NC(=O)NC1=O", "TGI": "> 100"}
{"smiles": "CCCN=Cc1c(O)c(O)c(C(C)C)c2cc(C)c(-c3c(C)cc4c(C(C)C)c(O)c(O)c(C=NCCC)c4c3O)c(O)c12", "TGI": "> 100"}
{"system": "LOX IMVI melanoma", "experiment": "NCI anticancer screen, dose series, 48 h", "units": {"TGI": "µM"}}
{"smiles": "O=C(c1nc2ccc(Cl)cc2[nH]c1=O)C(O)c1ccccc1", "note": "(stereo unspecified)", "TGI": "> 100"}
{"smiles": "c1ccc(C2(c3ccccc3)SSC3(S2)C2CC4CC(C2)CC3C4)cc1", "note": "(stereo unspecified)", "TGI": "> 100"}
{"smiles": "N#Cc1ccccc1NC(=O)/C(=N\\Nc1ccc([N+](=O)[O-])cc1)C1C(=O)NC(=O)NC1=O", "TGI": "> 100"}
{"smiles": "CCCN=Cc1c(O)c(O)c(C(C)C)c2cc(C)c(-c3c(C)cc4c(C(C)C)c(O)c(O)c(C=NCCC)c4c3O)c(O)c12", "TGI": 24.5}
{"system": "LXFL 529 NSCLC", "experiment": "NCI anticancer screen, dose series, 48 h", "units": {"TGI": "µM"}}
{"smiles": "O=C(c1nc2ccc(Cl)cc2[nH]c1=O)C(O)c1ccccc1", "note": "(stereo unspecified)", "TGI": "> 100"}
{"smiles": "c1ccc(C2(c3ccccc3)SSC3(S2)C2CC4CC(C2)CC3C4)cc1", "note": "(stereo unspecified)", "TGI": "> 100"}
{"smiles": "N#Cc1ccccc1NC(=O)/C(=N\\Nc1ccc([N+](=O)[O-])cc1)C1C(=O)NC(=O)NC1=O", "TGI": "> 100"}
{"smiles": "CCCN=Cc1c(O)c(O)c(C(C)C)c2cc(C)c(-c3c(C)cc4c(C(C)C)c(O)c(O)c(C=NCCC)c4c3O)c(O)c12", "TGI": 14.7}
{"system": "M14 melanoma", "experiment": "NCI anticancer screen, dose series, 48 h", "units": {"TGI": "µM"}}
{"smiles": "COC1=C(OC)C(O)(c2ccccc2)C1=O", "note": "(stereo unspecified)", "TGI": "> 100"}
{"smiles": "O=C(c1nc2ccc(Cl)cc2[nH]c1=O)C(O)c1ccccc1", "note": "(stereo unspecified)", "TGI": "> 100"}
{"smiles": "c1ccc(C2(c3ccccc3)SSC3(S2)C2CC4CC(C2)CC3C4)cc1", "note": "(stereo unspecified)", "TGI": "> 100"}
{"smiles": "N#Cc1ccccc1NC(=O)/C(=N\\Nc1ccc([N+](=O)[O-])cc1)C1C(=O)NC(=O)NC1=O", "TGI": "> 100"}
{"smiles": "CCCN=Cc1c(O)c(O)c(C(C)C)c2cc(C)c(-c3c(C)cc4c(C(C)C)c(O)c(O)c(C=NCCC)c4c3O)c(O)c12", "TGI": "> 21"}
{"system": "M19-MEL melanoma", "experiment": "NCI anticancer screen, dose series, 48 h", "units": {"TGI": "µM"}}
{"smiles": "COC1=C(OC)C(O)(c2ccccc2)C1=O", "note": "(stereo unspecified)", "TGI": "> 100"}
{"smiles": "O=C(c1nc2ccc(Cl)cc2[nH]c1=O)C(O)c1ccccc1", "note": "(stereo unspecified)", "TGI": "> 100"}
{"smiles": "N#Cc1ccccc1NC(=O)/C(=N\\Nc1ccc([N+](=O)[O-])cc1)C1C(=O)NC(=O)NC1=O", "TGI": "> 100"}
{"smiles": "CCCN=Cc1c(O)c(O)c(C(C)C)c2cc(C)c(-c3c(C)cc4c(C(C)C)c(O)c(O)c(C=NCCC)c4c3O)c(O)c12", "TGI": 20.1}
{"system": "MALME-3M melanoma", "experiment": "NCI anticancer screen, dose series, 48 h", "units": {"TGI": "µM"}}
{"smiles": "O=C(c1nc2ccc(Cl)cc2[nH]c1=O)C(O)c1ccccc1", "note": "(stereo unspecified)", "TGI": "> 100"}
{"smiles": "c1ccc(C2(c3ccccc3)SSC3(S2)C2CC4CC(C2)CC3C4)cc1", "note": "(stereo unspecified)", "TGI": "> 100"}
{"smiles": "N#Cc1ccccc1NC(=O)/C(=N\\Nc1ccc([N+](=O)[O-])cc1)C1C(=O)NC(=O)NC1=O", "TGI": "> 100"}
{"system": "MCF7 breast", "experiment": "NCI anticancer screen, dose series, 48 h", "units": {"TGI": "µM"}}
{"smiles": "CCCN=Cc1c(O)c(O)c(C(C)C)c2cc(C)c(-c3c(C)cc4c(C(C)C)c(O)c(O)c(C=NCCC)c4c3O)c(O)c12", "TGI": 71.1}
{"system": "MDA-MB-231 breast", "experiment": "NCI anticancer screen, dose series, 48 h", "units": {"TGI": "µM"}}
{"smiles": "CCCN=Cc1c(O)c(O)c(C(C)C)c2cc(C)c(-c3c(C)cc4c(C(C)C)c(O)c(O)c(C=NCCC)c4c3O)c(O)c12", "TGI": "> 100"}
{"system": "MDA-MB-435", "experiment": "NCI anticancer screen, dose series, 48 h", "units": {"TGI": "µM"}}
{"smiles": "CCCN=Cc1c(O)c(O)c(C(C)C)c2cc(C)c(-c3c(C)cc4c(C(C)C)c(O)c(O)c(C=NCCC)c4c3O)c(O)c12", "TGI": "> 100"}
{"system": "MDA-N", "experiment": "NCI anticancer screen, dose series, 48 h", "units": {"TGI": "µM"}}
{"smiles": "CCCN=Cc1c(O)c(O)c(C(C)C)c2cc(C)c(-c3c(C)cc4c(C(C)C)c(O)c(O)c(C=NCCC)c4c3O)c(O)c12", "TGI": "> 100"}
{"system": "MOLT-4 leukemia", "experiment": "NCI anticancer screen, dose series, 48 h", "units": {"TGI": "µM"}}
{"smiles": "COC1=C(OC)C(O)(c2ccccc2)C1=O", "note": "(stereo unspecified)", "TGI": "> 100"}
{"smiles": "O=C(c1nc2ccc(Cl)cc2[nH]c1=O)C(O)c1ccccc1", "note": "(stereo unspecified)", "TGI": "> 100"}
{"smiles": "c1ccc(C2(c3ccccc3)SSC3(S2)C2CC4CC(C2)CC3C4)cc1", "note": "(stereo unspecified)", "TGI": "> 100"}
